Assay results reported in patent US9115064B2, “N-hydroxylsulfonamide derivatives as new physiologically useful nitroxyl donors” (The Johns Hopkins University, priority 2007, dated 2015).

Assay: HNO production via N2O quantification (GC headspace analysis, Angeli's salt as benchmark)
Type: physicochemical
Conditions: pH 7.4 in PBS buffer at 37° C.; for Nitrous oxide evolved as % of Angelis salt: relative to Angeli's salt

Structure (SMILES)	% moles N2O/moles of sample	Nitrous oxide evolved as % of Angelis salt
[Na+].[Na+].[O-][N+]([O-])=NO [Angeli's Salt, sodium dioxotrinitrate, reference compound]	70.5%	100%
COC(=O)c1ccccc1S(=O)(=O)NO [Compound 1, 2-Hydroxysulfamoyl-benzoic acid methyl ester]	30.5%	43%
O=C(O)c1cccc(S(=O)(=O)NO)c1 [Compound 2, 3-Hydroxysulfamoyl-benzoic acid]	19%	27%
O=C(O)c1ccc(Cl)c(S(=O)(=O)NO)c1 [Compound 3, 4-Chloro-3-hydroxysulfamoyl-benzoic acid]	81.5%	116%
O=C(O)c1ccc(Br)c(S(=O)(=O)NO)c1 [Compound 4, 4-Bromo-3-hydroxysulfamoyl-benzoic acid]	82%	117%
O=C(c1ccc(Br)c(S(=O)(=O)NO)c1)N1CCOCC1 [Compound 5, -Bromo-N-hydroxy-5-(morpholine-4-carbonyl)-benzenesulfonamide]	80.5%	115%
CN(C)C(=O)c1ccc(Br)c(S(=O)(=O)NO)c1 [Compound 6, 4-Bromo-3-(hydroxysulfamoyl)-N,N-dimethylbenzamide]	81%	116%
CN(C)C(=O)c1ccc(Cl)c(S(=O)(=O)NO)c1 [Compound 7, 4-Chloro-3-(hydroxysulfamoyl)-N,N-dimethylbenzamide]	85%	122%
O=S(=O)(NO)c1ccccc1S(=O)(=O)N1CCOCC1 [Compound 8, N-Hydroxy-2-(morpholin-4-ylsulfonyl)benzene sulfonamide]	86%	126%
O=C(OCCN1CCOCC1)c1ccc(Cl)c(S(=O)(=O)NO)c1 [Compound 9, -(Morpholin-4-yl)ethyl 4-chloro-3-(hydroxysulfamoyl)benzoate]	65%	93%
O=C(NCCN1CCOCC1)c1cc(Br)c(S(=O)(=O)NO)s1 [Compound 97, 4-Bromo-5-(hydroxysulfamoyl)-N-[2-(morpholin-4-yl)ethyl]thiophene-2-carboxamide]	92%	131%
O=C(c1cc(Br)c(S(=O)(=O)NO)s1)N1CCOCC1 [Compound 98, 3-Bromo-N-hydroxy-5-(morpholin-4-ylcarbonyl)thiophene-2-sulfonamide]	81%	116%
